Laboratory results from PubChem BioAssay AID2060606 (Molecular Pharmacology Branch, DTP, NCI, 2025).
“And” between values parts separate entries of the source, which are not always exact repeats. Equal entries are not always repeated.

Test system: 922993-354-T-J3-PDC complex spheroids, viability, % test/control
Assay: Anticancer human tumor 922993-354-T-J3-PDC patient-derived endometrial carcinoma cell line growth inhibition [CLK]
Conditions: for viability, T/C: stronger effect = lower value
Procedure, shortened: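 Patient-derived tumor cells grown as complex spheroids with HUVEC endothelial cells and mesenchymal stem cells, treated with drug combinations. Concentrations descend in half-log steps from near clinical Cmax, or from 10 microM if Cmax unknown.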

[1] = curve of first compound, second compound 0.0316 µM
[2] = curve of first compound, second compound 0.1 µM
[3] = curve of first compound, second compound 0.316 µM
[4] = curve of first compound, second compound 1 µM
[5] = curve of first compound, second compound 3.16 µM
[6] = curve of first compound, second compound 10 µM
[7] = second compound 0.0316 µM, first compound 0.0316 µM
[8] = second compound 0.0316 µM, first compound 0.1 µM
[9] = second compound 0.0316 µM, first compound 0.316 µM
[10] = second compound 0.0316 µM, first compound 1 µM
[11] = second compound 0.0316 µM, first compound 3.16 µM
[12] = second compound 0.0316 µM, first compound 10 µM
[13] = second compound 0.1 µM, first compound 0.0316 µM
[14] = second compound 0.1 µM, first compound 0.1 µM
[15] = second compound 0.1 µM, first compound 0.316 µM
[16] = second compound 0.1 µM, first compound 1 µM
[17] = second compound 0.1 µM, first compound 3.16 µM
[18] = second compound 0.1 µM, first compound 10 µM
[19] = second compound 0.316 µM, first compound 0.0316 µM
[20] = second compound 0.316 µM, first compound 0.1 µM
[21] = second compound 0.316 µM, first compound 0.316 µM
[22] = second compound 0.316 µM, first compound 1 µM
[23] = second compound 0.316 µM, first compound 3.16 µM
[24] = second compound 0.316 µM, first compound 10 µM
[25] = second compound 1 µM, first compound 0.0316 µM
[26] = second compound 1 µM, first compound 0.1 µM
[27] = second compound 1 µM, first compound 0.316 µM
[28] = second compound 1 µM, first compound 1 µM
[29] = second compound 1 µM, first compound 3.16 µM
[30] = second compound 1 µM, first compound 10 µM
[31] = second compound 3.16 µM, first compound 0.0316 µM
[32] = second compound 3.16 µM, first compound 0.1 µM
[33] = second compound 3.16 µM, first compound 0.316 µM
[34] = second compound 3.16 µM, first compound 1 µM
[35] = second compound 3.16 µM, first compound 3.16 µM
[36] = second compound 3.16 µM, first compound 10 µM
[37] = second compound 10 µM, first compound 0.0316 µM
[38] = second compound 10 µM, first compound 0.1 µM
[39] = second compound 10 µM, first compound 0.316 µM
[40] = second compound 10 µM, first compound 1 µM
[41] = second compound 10 µM, first compound 3.16 µM
[42] = second compound 10 µM, first compound 10 µM
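Further: spheroids exposed to the agents for 7 days before readout.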

Structure (SMILES): Nc1ccccc1NC(=O)c1ccc(CNC(=O)OCc2cccnc2)cc1
- viability, T/C (compound 0.0316 µM): 105% and 111%
- viability, T/C (compound 0.1 µM): 71.8% and 85.9%
- viability, T/C (compound 0.316 µM): 95.8% and 95.2%
- viability, T/C (compound 1 µM): 71.8% and 81.7%
- viability, T/C (compound 3.16 µM): 64.9% and 70.1%
- viability, T/C (compound 10 µM): 53.4% and 55.2%
- IC50 (curve of compound): > 10 µM

Structure (SMILES): CNC(=O)c1ccc(Nc2nc(OC3CCCC3)c3c(-c4ccc5nc(C)oc5c4)c[nH]c3n2)c(OC)c1
- viability, T/C (compound 0.0316 µM): 106% [middle of 12 runs]
- viability, T/C (compound 0.1 µM): 107% [middle of 12 runs]
- viability, T/C (compound 1 µM): 39.3% [middle of 12 runs]
- viability, T/C (compound 3.16 µM): 34.4% [middle of 12 runs]
- viability, T/C (compound 10 µM): 33.4% [middle of 12 runs]
- IC50 (compound alone, run of 09/19/2023): 557 nM [middle of 12 runs]

Structure (SMILES): C=C(F)C(=O)N1CCN(c2nc(OCC3CCCN3C)nc3c2CCN(c2cccc4cccc(Cl)c24)C3)CC1CC#N (configuration not stated) + CN1CCN(c2cc(C(=O)Nc3cc4cc(-c5cnn(C)c5)ccc4cn3)ccn2)CC1
- IC50 [1]: 5.38 µM
- IC50 [2]: 5.61 µM
- IC50 [3]: < 0.0316 µM
- IC50 [4]: < 0.0316 µM
- IC50 [5]: < 0.0316 µM
- IC50 [6]: < 0.0316 µM
- viability, T/C [7]: 121%
- viability, T/C [8]: 103%
- viability, T/C [9]: 118%
- viability, T/C [10]: 101%
- viability, T/C [11]: 94%
- viability, T/C [12]: 1.08%
- viability, T/C [13]: 106%
- viability, T/C [14]: 95.9%
- viability, T/C [15]: 92.6%
- viability, T/C [16]: 87%
- viability, T/C [17]: 110%
- viability, T/C [18]: 1.37%
- viability, T/C [19]: 50.1%
- viability, T/C [20]: 51.6%
- viability, T/C [21]: 36.4%
- viability, T/C [22]: 41.5%
- viability, T/C [23]: 45.6%
- viability, T/C [24]: 0.87%
- viability, T/C [25]: 0.79%
- viability, T/C [26]: 0.16%
- viability, T/C [27]: 0.83%
- viability, T/C [28]: 0.12%
- viability, T/C [29]: 0.11%
- viability, T/C [30]: 1.63%
- viability, T/C [31]: 0.14%
- viability, T/C [32]: 0.63%
- viability, T/C [33]: 0.92%
- viability, T/C [34]: 0.12%
- viability, T/C [35]: 0.11%
- viability, T/C [36]: 1.67%
- viability, T/C [37]: 0.19%
- viability, T/C [38]: 0.18%
- viability, T/C [39]: 0.88%
- viability, T/C [40]: 0.29%
- viability, T/C [41]: 0.19%
- viability, T/C [42]: 0.93%

Structure (SMILES): COc1ccc([C@@H](O)c2cc(-c3ncnc4cc(N5CCOCC5)ccc34)c(F)cc2Cl)nn1 + CNC(=O)c1ccc(Nc2nc(OC3CCCC3)c3c(-c4ccc5nc(C)oc5c4)c[nH]c3n2)c(OC)c1
- IC50 [1]: > 10 µM
- IC50 [2]: > 10 µM
- IC50 [3]: > 10 µM
- IC50 [4]: < 0.0316 µM
- IC50 [5]: < 0.0316 µM
- IC50 [6]: < 0.0316 µM
- viability, T/C [7]: 113%
- viability, T/C [8]: 112%
- viability, T/C [9]: 130%
- viability, T/C [10]: 121%
- viability, T/C [11]: 113%
- viability, T/C [12]: 91.2%
- viability, T/C [13]: 104%
- viability, T/C [14]: 110%
- viability, T/C [15]: 99.7%
- viability, T/C [16]: 125%
- viability, T/C [17]: 104%
- viability, T/C [18]: 92.5%
- viability, T/C [19]: 64.3%
- viability, T/C [20]: 64.5%
- viability, T/C [21]: 66.6%
- viability, T/C [22]: 67.8%
- viability, T/C [23]: 87.1%
- viability, T/C [24]: 71.9%
- viability, T/C [25]: 39.3%
- viability, T/C [26]: 40.6%
- viability, T/C [27]: 40%
- viability, T/C [28]: 40.9%
- viability, T/C [29]: 52.1%
- viability, T/C [30]: 56.8%
- viability, T/C [31]: 31.8%
- viability, T/C [32]: 28.8%
- viability, T/C [33]: 34.8%
- viability, T/C [34]: 41.2%
- viability, T/C [35]: 45.8%
- viability, T/C [36]: 41%
- viability, T/C [37]: 34%
- viability, T/C [38]: 30.6%
- viability, T/C [39]: 41.6%
- viability, T/C [40]: 33.8%
- viability, T/C [41]: 44.2%
- viability, T/C [42]: 37.1%
